Experimental data reported in US20230303510A1, “CYCLIZED ACETAMIDO DERIVATIVES AS DNA POLYMERASE THETA INHIBITORS” (Ideaya Biosciences, Inc., priority 2020, published 2023).

What was measured:
[1] = molecular target: T1, Pol theta polymerase domain (residues 1819-2590) (Homo sapiens, UniProt O75417); test: Primer extension assay (inhibition of polymerase activity of Pol theta, molecular beacon fluorescence); type: biochemical; settings: Pol theta polymerase domain 4 nM; fluorescence change over 30 min
T1 construct: Pol theta polymerase domain (residues 1819-2590) at a final concentration of 4 nM
T1 sequence (O75417 1819-2590): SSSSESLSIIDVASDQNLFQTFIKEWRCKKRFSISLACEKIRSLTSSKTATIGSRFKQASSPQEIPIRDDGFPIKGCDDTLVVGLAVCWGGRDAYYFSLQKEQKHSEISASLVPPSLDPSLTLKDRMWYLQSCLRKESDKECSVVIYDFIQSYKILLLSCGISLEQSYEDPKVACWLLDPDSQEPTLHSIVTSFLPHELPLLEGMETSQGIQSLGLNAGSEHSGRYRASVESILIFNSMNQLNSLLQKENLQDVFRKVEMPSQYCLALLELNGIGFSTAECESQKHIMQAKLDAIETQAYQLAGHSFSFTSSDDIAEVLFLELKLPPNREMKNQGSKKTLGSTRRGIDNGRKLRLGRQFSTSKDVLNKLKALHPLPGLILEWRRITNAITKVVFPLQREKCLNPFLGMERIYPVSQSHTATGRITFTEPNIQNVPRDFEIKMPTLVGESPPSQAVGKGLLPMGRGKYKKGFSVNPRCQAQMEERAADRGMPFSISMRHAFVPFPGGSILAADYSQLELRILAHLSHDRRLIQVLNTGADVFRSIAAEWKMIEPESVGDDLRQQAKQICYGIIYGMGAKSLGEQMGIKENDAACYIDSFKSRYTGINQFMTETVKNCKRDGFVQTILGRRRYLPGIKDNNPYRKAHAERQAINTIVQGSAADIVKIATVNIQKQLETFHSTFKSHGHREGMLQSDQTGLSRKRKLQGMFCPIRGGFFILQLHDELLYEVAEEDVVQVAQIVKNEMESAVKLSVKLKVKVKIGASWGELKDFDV
Procedure: The ability of the compounds of Formula (I) or Formula (II) to inhibit polymerase activity of Pol theta was determined using the primer extension assay as set forth below.
A mixture of 20 uL of Pol theta polymerase domain (residues 1819-2590) at a final concentration of 4 nM in assay buffer (20 m M TRIS, pH 7.80, 50 mM KCl, 10 mM MgCl2, 1 mM DTT, 0.01% BSA, 0.01% Tween20) was added to test compounds (11-point dilution series of test compounds) except the low control wells without test compounds. The above enzyme and test compound inhibitor mixture was then incubated at room temperature for 15 min. An equal volume (20 μl) of dNTP substrate mixture (48 μM) and primed molecular beacon DNA (obtained by annealing template SEQ ID NO:2: (5′-CCTTCCTCCCGTGTCTTG-TACCTTCCCGTCA-GGAGGAAGG-3′) with 5′-TAMRA and 3′-BHQ and primer DNA (SEQ ID NO:3; 5′-GACGGGAAGG-3′) in 10 mM Tris-HCl pH 8.0, 100 mM NaCl buffer) (96 nM) in assay buffer was added to all the test wells. The inhibition activity was measured by monitoring the fluorescence change over 30 min at 535 nm upon excitation at 485 nm. The high control (DMSO with enzyme) with high fluorescence intensity represents no inhibition of polymerase reaction while the low control (DMSO with buffer) with low fluorescence intensity represents full inhibition of polymerase activity. Slope of the reaction progress curves were used to calculate the rate of polymerization. The rates were used to determine the percent inhibition using a four-parameter inhibition model to generate IC50, Hill slope and max inhibition.

[2] = molecular target: T2, Pol theta (residues 1819-2590) (Homo sapiens, UniProt O75417); test: PPi assay (inhibition of polymerase activity of Pol theta, PPiLite luminescence); type: biochemical; settings: Pol theta 2.8 nM; luminescence kinetic mode 90 min
T2 construct: Pol theta polymerase domain (residues 1819-2590) at a final concentration of 4 nM
T2 sequence (O75417 1819-2590): T1 sequence (O75417 1819-2590)
Procedure: The ability of the compounds of Formula (I) or Formula (II) to inhibit polymerase activity of Pol theta was determined using the PPi assay as set forth below.
A mixture of template DNA strand (SEQ ID NO:4: 5′ ATTACTGACCTCATACTTCTGCCCTTCCATGTTCTGTGCCCTCCTTCC 3′) and primer DNA strand (SEQ ID NO:5: 5′ GGA AGG AGG GCA CAG AAC 3′) was annealed in 10 mM Tris-HCl pH 8.0, […] buffer to form the primed DNA substrate. A 10-point dilution series of compounds were used in a 384 well format for the inhibition assay. Pol theta (residues 1819-2590) (2.8 nM) in assay buffer (20 mM Tris-HCl pH 7.8, 50 mM KCl, 10 mM MgCl2, 1 mM DTT, 0.01% BSA, 0.01% Tween-20) was transferred to the test wells (10 uL), except for the low control wells. The plate was then incubated at room temperature for 15 mins. An equal volume (10 μL) of dNTP substrate (40 μM) and primed DNA substrate (800 nM) in assay buffer was added to all the test wells. 20 μL of PPi detection reagent (PPiLite inorganic pyrophosphate assay, Lonzo) was then added to all test wells. The plate was then centrifuged at 1000 rpm for 1 min. The reaction was monitored in a Tecan M1000 Pro plate reader in luminescence kinetic mode for 90 min. The high control (DMSO with enzyme) with high luminescence represents no inhibition of the polymerase reaction while the low control (DMSO with buffer) with low luminescence represents full inhibition of the polymerase activity. Slope of the reaction progress curves were used to calculate the rate of polymerization. The rates were used to determine the percent inhibition using a four-parameter inhibition model to generate IC50, Hill slope, maximum inhibition, and minimum inhibition.

Row | SMILES | IC50 [1] | IC50 [2]
1 | CN(C(=O)C1CCCN1c1cc(C(F)(F)F)cc(C(F)(F)F)n1)c1ccc(F)cc1 (stereo not drawn) [1.001, 1-(4,6-bis(trifluoromethyl)pyridin-2-yl)-N-(4-fluorophenyl)-N-methylpyrrolidine-2-carboxamide] | ≤ 200 nM | 
2 | CN(C(=O)C1CCCN1c1ccccc1)c1ccccc1 (stereo not drawn) [1.004, N-methyl-N,1-diphenylpyrrolidine-2-carboxamide] | 1000 to 10000 nM | 
3 | CN(C(=O)C1CCN1c1cc(C(F)(F)F)cc(C(F)(F)F)n1)c1ccc(F)cc1 (stereo not drawn) [1.005, 1-(4,6-bis(trifluoromethyl)pyridin-2-yl)-N-(4-fluorophenyl)-N-methylazetidine-2-carboxamide] | ≤ 200 nM | 
4 | CN(C(=O)C1CCCCN1c1cc(C(F)(F)F)cc(C(F)(F)F)n1)c1ccc(F)cc1 (stereo not drawn) [1.007, 1-(4,6-bis(trifluoromethyl)pyridin-2-yl)-N-(4-fluorophenyl)-N-methylpiperidine-2-carboxamide] | ≤ 200 nM | 
5 | Fc1ccc(-c2cccnc2C2CCCN2c2cc(C(F)(F)F)cc(C(F)(F)F)n2)cc1 (stereo not drawn) [1.008, 2-(2-(3-(4-fluorophenyl)pyridin-2-yl)pyrrolidin-1-yl)-4,6-bis(trifluoromethyl)pyridine] | ≤ 200 nM | 
6 | CN(C(=O)[C@@H]1CCCN1c1cc(C(F)(F)F)cc(C(F)(F)F)n1)c1ccc(Br)cc1 [1.009, (S)-1-(4,6-bis(trifluoromethyl)pyridin-2-yl)-N-(4-bromophenyl)-N-methylpyrrolidine-2-carboxamide] | ≤ 200 nM | 
7 | CN(C(=O)[C@@H]1CCCN1c1cc(C(F)(F)F)cc(C(F)(F)F)n1)c1ccc2occc2c1 [1.010, (S)-N-(benzofuran-5-yl)-1-(4,6-bis(trifluoromethyl)pyridin-2-yl)-N-methylpyrrolidine-2-carboxamide] | ≤ 200 nM | 
8 | CN(C(=O)[C@@H]1CCCN1c1cc(C(F)(F)F)cc(C(F)(F)F)n1)c1ccncc1 [1.011, (S)-1-(4,6-bis(trifluoromethyl)pyridin-2-yl)-N-methyl-N-(pyridin-4-yl)pyrrolidine-2-carboxamide] | ≤ 200 nM | 
9 | O=C([C@@H]1CCCN1c1cc(C(F)(F)F)cc(C(F)(F)F)n1)N(c1ccc(F)cc1)C1CC1 [1.012, (S)-1-(4,6-bis(trifluoromethyl)pyridin-2-yl)-N-cyclopropyl-N-(4-fluorophenyl)pyrrolidine-2-carboxamide] | ≤ 200 nM | 
10 | CN(C(=O)[C@@H]1C[C@H](O)CN1c1cc(C(F)(F)F)cc(C(F)(F)F)n1)c1ccc(F)cc1 [1.013, (2S,4S)-1-(4,6-bis(trifluoromethyl)pyridin-2-yl)-N-(4-fluorophenyl)-4-hydroxy-N-methylpyrrolidine-2-carboxamide] | ≤ 200 nM | 
11 | CN(C(=O)[C@@H]1CCCN1c1cc(C(F)(F)F)ccn1)c1ccc(F)cc1 [1.014, (S)-N-(4-fluorophenyl)-N-methyl-1-(4-(trifluoromethyl)pyridin-2-yl)pyrrolidine-2-carboxamide] | ≤ 200 nM | 
12 | CN(C(=O)[C@@H]1CCCN1c1cccc(C(F)(F)F)n1)c1ccc(F)cc1 [1.015, (S)-N-(4-fluorophenyl)-N-methyl-1-(6-(trifluoromethyl)pyridin-2-yl)pyrrolidine-2-carboxamide] | ≤ 200 nM | 
13 | CN(C(=O)[C@@H]1C[C@@H](O)CN1c1cc(C(F)(F)F)cc(C(F)(F)F)n1)c1ccc(F)cc1 [1.016, (2S,4R)-1-(4,6-bis(trifluoromethyl)pyridin-2-yl)-N-(4-fluorophenyl)-4-hydroxy-N-methylpyrrolidine-2-carboxamide] | ≤ 200 nM | 
14 | CN(C(=O)C1CCCN1c1nc(C(F)(F)F)cc(C(F)(F)F)n1)c1ccc(F)cc1 (stereo not drawn) [1.017, 1-(4,6-bis(trifluoromethyl)pyrimidin-2-yl)-N-(4-fluorophenyl)-N-methylpyrrolidine-2-carboxamide] | ≤ 200 nM | 
15 | CN(C(=O)[C@@H]1CCCN1c1cc(C(F)(F)F)cc(C(F)(F)F)n1)c1cccc(C#N)c1 [1.018, (S)-1-(4,6-bis(trifluoromethyl)pyridin-2-yl)-N-(3-cyanophenyl)-N-methylpyrrolidine-2-carboxamide] | ≤ 200 nM | 
16 | C[C@H]1CC[C@@H](C(=O)N(C)c2ccc(F)cc2)N1c1cc(C(F)(F)F)cc(C(F)(F)F)n1 [1.021, (2S,5S)-1-(4,6-bis(trifluoromethyl)pyridin-2-yl)-N-(4-fluorophenyl)-N,5-dimethylpyrrolidine-2-carboxamide] |  | ≤ 200 nM
17 | C[C@@H]1CC[C@@H](C(=O)N(C)c2ccc(F)cc2)N1c1cc(C(F)(F)F)cc(C(F)(F)F)n1 [1.023, (2S,5R)-1-(4,6-bis(trifluoromethyl)pyridin-2-yl)-N-(4-fluorophenyl)-N,5-dimethylpyrrolidine-2-carboxamide] |  | 500 to 1000 nM
18 | CN(C(=O)[C@@H]1CCN1c1nc(C(F)(F)F)cc(C(F)(F)F)c1C#N)c1ccc(F)cc1 [1.025, (S)-1-(3-cyano-4,6-bis(trifluoromethyl)pyridin-2-yl)-N-(4-fluorophenyl)-N-methylazetidine-2-carboxamide] |  | ≤ 200 nM
19 | Fc1ccc(-c2cccnc2[C@@H]2CCCN2c2cc(C(F)(F)F)cc(C(F)(F)F)n2)cc1 [1.026, (S)-2-(2-(3-(4-fluorophenyl)pyridin-2-yl)pyrrolidin-1-yl)-4,6-bis(trifluoromethyl)pyridine] |  | ≤ 200 nM
20 | Fc1ccc(-c2cccnc2[C@H]2CCCN2c2cc(C(F)(F)F)cc(C(F)(F)F)n2)cc1 [1.027, (R)-2-(2-(3-(4-fluorophenyl)pyridin-2-yl)pyrrolidin-1-yl)-4,6-bis(trifluoromethyl)pyridine] |  | 1000 to 10000 nM
21 | O=C([C@@H]1CCCN1c1cc(C(F)(F)F)cc(C(F)(F)F)n1)N(c1ccccc1)c1ccccc1 [1.028, (S)-1-(4,6-bis(trifluoromethyl)pyridin-2-yl)-N,N-diphenylpyrrolidine-2-carboxamide] |  | 1000 to 10000 nM
22 | CN(C(=O)[C@@H]1[C@H](O)CCN1c1cc(C(F)(F)F)cc(C(F)(F)F)n1)c1ccc(F)cc1 [1.029, (2S,3R)-1-(4,6-bis(trifluoromethyl)pyridin-2-yl)-N-(4-fluorophenyl)-3-hydroxy-N-methylpyrrolidine-2-carboxamide] |  | ≤ 200 nM
23 | O=C([C@@H]1CCCN1c1cc(C(F)(F)F)cc(C(F)(F)F)n1)N(c1ccc(F)cc1)C1COC1 [1.030, (S)-1-(4,6-bis(trifluoromethyl)pyridin-2-yl)-N-(4-fluorophenyl)-N-(oxetan-3-yl)pyrrolidine-2-carboxamide] |  | ≤ 200 nM
24 | Cc1cc(C)nc(N2CCC[C@H]2C(=O)N(C)c2ccc(F)cc2)c1 [1.031, (S)-1-(4,6-dimethylpyridin-2-yl)-N-(4-fluorophenyl)-N-methylpyrrolidine-2-carboxamide] | 200 to 500 nM | 
